Experiments:
[1] = molecular target: VIM-1 (Pseudomonas aeruginosa (strain ATCC 15692 / DSM 22644 / CIP 104116 / JCM 14847 / LMG 12228 / 1C / PRS 101 / PAO1), UniProt A0A0F7KYQ8); test: biochemical; settings: CCF2-FA substrate, 2 hours at 25° C
Method in brief: (§1)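 Semi-log dose-response curves, fitted with a 4-parameter model, gave IC50s. The underlying signal was CCF2-FA fluorescence following 2 hours at 25° C with enzyme, substrate and inhibitor combined.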

[2] = molecular target: NDM-1 (Klebsiella pneumoniae, UniProt C7C422); test: biochemical; assay type: biochemical; settings: CCF2-FA substrate, 2 hours at 25° C; read-out: NDM-1 IC50
NDM-1, sequence (C7C422 whole entry, looked up, species assumed): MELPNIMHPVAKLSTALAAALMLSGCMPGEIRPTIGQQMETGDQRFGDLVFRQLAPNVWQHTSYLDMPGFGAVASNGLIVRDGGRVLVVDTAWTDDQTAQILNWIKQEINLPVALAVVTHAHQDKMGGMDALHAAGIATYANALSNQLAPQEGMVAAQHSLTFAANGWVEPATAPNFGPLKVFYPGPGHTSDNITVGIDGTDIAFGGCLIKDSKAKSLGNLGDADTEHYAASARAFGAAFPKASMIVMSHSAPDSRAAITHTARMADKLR
Method in brief: as §1

[3] = molecular target: IMP-1 (Serratia marcescens, UniProt P52699); test: biochemical; assay type: biochemical; settings: CCF2-FA substrate, 2 hours at 25° C; read-out: IMP-1 IC50
IMP-1, sequence (P52699 whole entry, looked up, species assumed): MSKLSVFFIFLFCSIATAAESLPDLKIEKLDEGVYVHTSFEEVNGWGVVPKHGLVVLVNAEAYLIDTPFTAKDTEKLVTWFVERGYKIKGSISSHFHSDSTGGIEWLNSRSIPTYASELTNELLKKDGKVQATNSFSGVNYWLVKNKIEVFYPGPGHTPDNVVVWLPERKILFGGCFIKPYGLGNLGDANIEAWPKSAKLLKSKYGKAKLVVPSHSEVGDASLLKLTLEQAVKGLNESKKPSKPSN
Method in brief: as §1

[4] = tested on: P. aeruginosa expressing IMP-1, efflux− (MB9799); test: Efflux: concentration of MBL inhibitor which restores susceptibility to imipenem; assay type: cell-based, Pseudomonas aeruginosa; settings: imipenem at 2 μg/mL, in the presence of a class A, C, D serine β-lactamase inhibitor closely related to relebactam
Source text: (§2) The strain background is Pseudomonas aeruginosa PAO1.

[5] = tested on: P. aeruginosa expressing IMP-1, efflux+ (MB9798); assay type: cell-based, Pseudomonas aeruginosa; settings: for P. aeruginosa expressing IMP-1, efflux+ (MB9798) MITC95: imipenem at 2 μg/mL, in the presence of a class A, C, D serine β-lactamase inhibitor closely related to relebactam; for Efflux ratio: ratio MITC95 PA_9798/MITC95 PA_9799
Source text: as §2

[6] = tested on: Klebsiella pneumoniae expressing VIM-1 (IHMA599644); assay type: cell-based; settings: with imipenem 1 μg/ml, 95% inhibition of bacterial growth; for Klebsiella pneumoniae MITC95: VIM-1 (IHMA599644)
Method in brief: (§3)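 Restoration of imipenem susceptibility (1 μg/ml imipenem) was judged by absorbance after 22–24 h at 35° C. Test compound was added to bacteria suspended 1:100 in 1.1× CAMHB from overnight blood-agar cultures.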

[7] = tested on: Serratia marcescens expressing IMP-1 (CL5741); assay type: cell-based; settings: with imipenem 1 μg/ml, 95% inhibition of bacterial growth; for Serratia marcescens MITC95: IMP-1 (CL5741)
Method in brief: as §3

[8] = tested on: Escherichia coli expressing NDM-1 (CLB30005, CLB30016); assay type: cell-based; settings: with imipenem 1 μg/ml, 95% inhibition of bacterial growth; for Escherichia coli MITC95: NDM-1 (CLB30016)
Method in brief: as §3

Structure (SMILES) | IC50 [1] | IC50 [2] | IC50 [3] | P. aeruginosa expressing IMP-1, efflux− (MB9799) MITC95 [4] | P. aeruginosa expressing IMP-1, efflux+ (MB9798) MITC95 [5] | Efflux ratio [5] | Klebsiella pneumoniae MITC95 [6] | Serratia marcescens MITC95 [7] | Escherichia coli MITC95 [8] | Klebsiella pneumoniae expressing VIM-1 (IHMA599644) MITC95 [6] | Serratia marcescens expressing IMP-1 (CL5741) MITC95 [7] | Escherichia coli expressing NDM-1 (CLB30016) MITC95 [8]
C[C@@H](N)CS(=O)(=O)c1ccc(-c2cccc3[nH]cnc23)c(-c2nn[nH]n2)c1S(N)(=O)=O [Example 359] | 0.316 nM | 0.286 nM | 0.454 nM | 0.7813 µM | 1.563 µM | 2.00 | 1.563 µM | 1.563 µM | 1.563 µM |  |  | 
CS(=O)(=O)c1ccc(-c2cnc3ccccn23)c(-c2nn[nH]n2)c1S(N)(=O)=O [Example 238, 3-(Imidazo[1,2-a]pyridin-3-yl)-6-(methylsulfonyl)-2-(2H-tetrazol-5-yl) benzenesulfonamide] | 0.201 nM | 0.862 nM | 0.333 nM | 1.563 µM | 50 µM | 31.99 |  |  |  | 6.25 µM | 3.125 µM | 3.125 µM
Nc1n[nH]c2cccc(-c3ccc(S(=O)(=O)C4CNC4)c(S(N)(=O)=O)c3-c3nnn[nH]3)c12 [Example 263, 3-(3-amino-1H-indazol-4-yl)-6-(azetidin-3-ylsulfonyl)-2-(1H-tetrazol-5-yl) benzenesulfonamide] | 0.594 nM | 0.431 nM | 4.59 nM | 3.125 µM | 6.25 µM | 2.00 | 6.25 µM | 1.563 µM | 1.563 µM |  |  | 
NCCS(=O)(=O)c1ccc(-c2ccc3c(=O)nc[nH]c3c2)c(-c2nnn[nH]2)c1S(N)(=O)=O.O=C(O)C(F)(F)F [Example 165, 2-((4-(4-oxo-1,4-dihydroquinazolin-7-yl)-2-sulfamoyl-3-(1H-tetrazol-5-yl)phenyl)sulfonyl)ethanaminium 2,2,2-trifluoroacetate] | 0.571 nM | 2.48 nM | 1.6 nM | 3.125 µM | 12.5 µM | 4.00 |  |  |  | 6.25 µM | 3.125 µM | 3.125 µM
CS(=O)(=O)c1ccc([C@H]2CC[C@@H](N)CC2)c(-c2nnn[nH]2)c1S(N)(=O)=O [Example 209, 3-((1s,4s)-4-aminocyclohexyl)-6-(methylsulfonyl)-2-(1H-tetrazol-5-yl) benzenesulfonamide] | 52.1 nM | 16.4 nM | 65.3 nM | 3.125 µM | 50 µM | 16.00 |  |  |  | 25 µM | 6.25 µM | 3.125 µM
Nc1nc2cccc(-c3ccc(S(=O)(=O)[C@@H]4CCNC4)c(S(N)(=O)=O)c3-c3nn[nH]n3)c2[nH]1 [Example 181, 3-(2-amino-3H-benzo[d]imidazol-4-yl)-6-((R)-pyrrolidin-3-ylsulfonyl)-2-(2H-tetrazol-5-yl)benzenesulfonamide] | 0.42 nM | 0.149 nM | 0.807 nM | 0.6875 µM | 0.6875 µM | 1.00 |  |  |  | 0.8542 µM | 0.6875 µM | 0.3203 µM
NCCS(=O)(=O)c1ccc(-c2ccnc3[nH]ccc23)c(-c2nnn[nH]2)c1S(N)(=O)=O.O=C(O)C(F)(F)F [Example 142, 2-((4-(1H-pyrrolo[2,3-b]pyridin-4-yl)-2-sulfamoyl-3-(1H-tetrazol-5-yl)phenyl)sulfonyl)ethanaminium 2,2,2-trifluoroacetate] | 0.153 nM | 0.518 nM | 0.517 nM | 0.7813 µM | 3.125 µM | 4.00 |  |  |  | 3.125 µM | 1.563 µM | 1.563 µM
NCCS(=O)(=O)c1ccc(-c2ccc3cccnc3c2)c(-c2nnn[nH]2)c1S(N)(=O)=O.O=C(O)C(F)(F)F [Example 159, 2-((4-(quinolin-7-yl)-2-sulfamoyl-3-(1H-tetrazol-5-yl)phenyl)sulfonyl)ethanaminium 2,2,2-trifluoroacetate] | 0.264 nM | 1.1 nM | 0.487 nM | 1.563 µM | 12.5 µM | 8.00 |  |  |  | 3.125 µM | 3.125 µM | 1.563 µM
NCCS(=O)(=O)c1ccc(-c2cnc3cccnc3c2)c(-c2nnn[nH]2)c1S(N)(=O)=O.O=C(O)C(F)(F)F [Example 134, 2-((4-(1,5-naphthyridin-3-yl)-2-sulfamoyl-3-(1H-tetrazol-5-yl)phenyl)sulfonyl)ethanaminium 2,2,2-trifluoroacetate] | 0.991 nM | 2.65 nM | 2.47 nM | 1.563 µM | 25 µM | 15.99 |  |  |  | 6.25 µM | 3.125 µM | 6.25 µM
NCCS(=O)(=O)c1ccc(-c2c[nH]c3nccnc23)c(-c2nnn[nH]2)c1S(N)(=O)=O.O=C(O)C(F)(F)F [Example 136, 2-((4-(5H-pyrrolo[2,3-b]pyrazin-7-yl)-2-sulfamoyl-3-(1H-tetrazol-5-yl)phenyl)sulfonyl)ethanaminium 2,2,2-trifluoroacetate] | 1.19 nM | 2.14 nM | 1.72 nM | 0.7813 µM | 12.5 µM | 16.00 |  |  |  | 3.125 µM | 1.563 µM | 1.563 µM
CS(=O)(=O)N1CC(S(=O)(=O)c2ccc(-c3cccc4[nH]c(N)nc34)c(-c3nn[nH]n3)c2S(N)(=O)=O)C1 [Example 55, 3-(2-amino-1H-benzo[d]imidazol-4-yl)-6-(1-(methylsulfonyl)azetidin-3-ylsulfonyl)-2-(2H-tetrazol-5-yl)benzenesulfonamide] | 0.312 nM | 0.0818 nM | 1.42 nM | 1.563 µM | 50 µM | 31.99 |  |  |  | 6.25 µM | 3.125 µM | 3.125 µM
Nc1nc2c(-c3ccc(S(=O)(=O)C4CNC4)c(S(N)(=O)=O)c3-c3nn[nH]n3)ccc(F)c2[nH]1 [Example 251, 3-(2-Amino-7-fluoro-1H-benzo[d]imidazol-4-yl)-6-(azetidin-3-ylsulfonyl)-2-(2H-tetrazol-5-yl)benzenesulfonamide] | 0.251 nM | 0.0727 nM | 0.748 nM | 0.7813 µM | 1.563 µM | 2.00 | 1.563 µM | 1.563 µM | 0.3906 µM |  |  | 
NS(=O)(=O)c1c(S(=O)(=O)C2CNC2)ccc(-c2cccc(C3CCC(=O)N3)c2)c1-c1nnn[nH]1.O=C(O)C(F)(F)F (stereo not drawn) [Example 125, 3-((3′-(5-oxopyrrolidin-2-yl)-3-sulfamoyl-2-(1H-tetrazol-5-yl)-[1,1′-biphenyl]-4-yl)sulfonyl)azetidin-1-ium 2,2,2-trifluoroacetate] | 2.54 nM | 4.02 nM | 5.23 nM | 3.125 µM | 50 µM | 16.00 |  |  |  | 6.25 µM | 6.25 µM | 6.25 µM
